In ChEMBL document CHEMBL5649169 (ChemMedChem, 2018):

Assays:
[1] = biological target: Atlastin-3 (Homo sapiens) (UniProt Q6DD88)
[2] = biological target: Small ribosomal subunit protein mS23 (Homo sapiens) (UniProt Q9Y3D9)
[3] = biological target: RNA-binding protein RO60 (Homo sapiens) (UniProt P10155)
[4] = biological target: Proteasome subunit alpha type-1 (Homo sapiens) (UniProt P25786)
[5] = biological target: Rab-like protein 3 (Homo sapiens) (UniProt Q5HYI8)
[6] = biological target: Low molecular weight phosphotyrosine protein phosphatase (Homo sapiens) (UniProt P24666)
[7] = biological target: Large ribosomal subunit protein eL30 (Homo sapiens) (UniProt P62888)
[8] = biological target: Mitochondrial-processing peptidase subunit beta (Homo sapiens) (UniProt O75439)
Chain of Mitochondrial-processing peptidase subunit beta (Homo sapiens) (O75439 whole entry): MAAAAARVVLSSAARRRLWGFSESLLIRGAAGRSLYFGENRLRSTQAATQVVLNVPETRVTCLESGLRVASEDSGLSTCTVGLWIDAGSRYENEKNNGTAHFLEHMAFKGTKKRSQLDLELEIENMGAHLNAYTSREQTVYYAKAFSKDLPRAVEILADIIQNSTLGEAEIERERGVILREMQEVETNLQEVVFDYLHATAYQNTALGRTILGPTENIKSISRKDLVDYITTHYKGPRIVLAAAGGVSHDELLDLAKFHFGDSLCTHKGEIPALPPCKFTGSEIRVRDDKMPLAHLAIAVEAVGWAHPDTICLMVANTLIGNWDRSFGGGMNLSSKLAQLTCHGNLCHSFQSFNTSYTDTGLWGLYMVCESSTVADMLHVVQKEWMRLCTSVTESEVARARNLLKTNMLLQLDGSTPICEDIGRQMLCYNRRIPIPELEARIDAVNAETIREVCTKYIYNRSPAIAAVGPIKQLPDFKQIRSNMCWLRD

[9] = biological target: Pyridoxal kinase (Homo sapiens) (UniProt O00764)
[10] = biological target: Trifunctional enzyme subunit beta, mitochondrial (Homo sapiens) (UniProt P55084)
[11] = biological target: Ubiquitin-conjugating enzyme E2 L3 (Homo sapiens) (UniProt P68036)
[12] = biological target: Clathrin light chain A (Homo sapiens) (UniProt P09496)
Chain of Clathrin light chain A (Homo sapiens) (P09496 whole entry): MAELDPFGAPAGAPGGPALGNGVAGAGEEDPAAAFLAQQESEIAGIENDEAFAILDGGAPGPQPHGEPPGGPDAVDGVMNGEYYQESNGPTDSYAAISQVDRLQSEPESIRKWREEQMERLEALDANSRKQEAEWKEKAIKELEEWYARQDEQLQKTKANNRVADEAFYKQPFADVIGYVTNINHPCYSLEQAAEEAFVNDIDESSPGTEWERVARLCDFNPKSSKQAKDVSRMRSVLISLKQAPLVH

[13] = biological target: Poly [ADP-ribose] polymerase 1 (Homo sapiens) (UniProt P09874)
[14] = biological target: Protein LYRIC (Homo sapiens) (UniProt Q86UE4)
[15] = biological target: Proteasome subunit alpha type-6 (Homo sapiens) (UniProt P60900)
Chain of Proteasome subunit alpha type-6 (Homo sapiens) (P60900 whole entry): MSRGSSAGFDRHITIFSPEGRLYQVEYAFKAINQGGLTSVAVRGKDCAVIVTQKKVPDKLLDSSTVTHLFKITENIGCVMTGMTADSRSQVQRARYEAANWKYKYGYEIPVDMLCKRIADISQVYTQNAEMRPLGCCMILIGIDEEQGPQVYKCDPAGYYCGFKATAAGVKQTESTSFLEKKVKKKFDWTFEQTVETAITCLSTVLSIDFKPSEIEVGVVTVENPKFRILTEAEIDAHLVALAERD

[16] = biological target: Non-receptor tyrosine-protein kinase TYK2 (Homo sapiens) (UniProt P29597)
[17] = biological target: Succinate--CoA ligase [ADP/GDP-forming] subunit alpha, mitochondrial (Homo sapiens) (UniProt P53597)
Chain of Succinate--CoA ligase [ADP/GDP-forming] subunit alpha, mitochondrial (Homo sapiens) (P53597 whole entry): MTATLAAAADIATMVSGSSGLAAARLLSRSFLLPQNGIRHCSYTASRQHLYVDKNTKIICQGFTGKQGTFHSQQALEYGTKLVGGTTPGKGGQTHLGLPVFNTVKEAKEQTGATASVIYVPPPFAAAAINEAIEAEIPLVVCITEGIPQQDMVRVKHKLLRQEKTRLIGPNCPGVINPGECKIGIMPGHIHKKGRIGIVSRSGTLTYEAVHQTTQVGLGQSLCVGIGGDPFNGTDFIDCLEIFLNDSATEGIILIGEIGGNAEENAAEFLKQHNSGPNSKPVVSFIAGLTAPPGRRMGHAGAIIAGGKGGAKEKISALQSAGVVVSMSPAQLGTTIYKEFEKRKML

[18] = biological target: Ferrochelatase, mitochondrial (Homo sapiens) (UniProt P22830)
[19] = biological target: Puromycin-sensitive aminopeptidase (Homo sapiens) (UniProt P55786)
[20] = biological target: Proteasome activator complex subunit 2 (Homo sapiens) (UniProt Q9UL46)
[21] = biological target: Acidic leucine-rich nuclear phosphoprotein 32 family member B (Homo sapiens) (UniProt Q92688)
[22] = biological target: Catechol O-methyltransferase (Homo sapiens) (UniProt P21964)
[23] = biological target: Serrate RNA effector molecule homolog (Homo sapiens) (UniProt Q9BXP5)
[24] = biological target: Peroxisomal multifunctional enzyme type 2 (Homo sapiens) (UniProt P51659)
Chain of Peroxisomal multifunctional enzyme type 2 (Homo sapiens) (P51659 whole entry): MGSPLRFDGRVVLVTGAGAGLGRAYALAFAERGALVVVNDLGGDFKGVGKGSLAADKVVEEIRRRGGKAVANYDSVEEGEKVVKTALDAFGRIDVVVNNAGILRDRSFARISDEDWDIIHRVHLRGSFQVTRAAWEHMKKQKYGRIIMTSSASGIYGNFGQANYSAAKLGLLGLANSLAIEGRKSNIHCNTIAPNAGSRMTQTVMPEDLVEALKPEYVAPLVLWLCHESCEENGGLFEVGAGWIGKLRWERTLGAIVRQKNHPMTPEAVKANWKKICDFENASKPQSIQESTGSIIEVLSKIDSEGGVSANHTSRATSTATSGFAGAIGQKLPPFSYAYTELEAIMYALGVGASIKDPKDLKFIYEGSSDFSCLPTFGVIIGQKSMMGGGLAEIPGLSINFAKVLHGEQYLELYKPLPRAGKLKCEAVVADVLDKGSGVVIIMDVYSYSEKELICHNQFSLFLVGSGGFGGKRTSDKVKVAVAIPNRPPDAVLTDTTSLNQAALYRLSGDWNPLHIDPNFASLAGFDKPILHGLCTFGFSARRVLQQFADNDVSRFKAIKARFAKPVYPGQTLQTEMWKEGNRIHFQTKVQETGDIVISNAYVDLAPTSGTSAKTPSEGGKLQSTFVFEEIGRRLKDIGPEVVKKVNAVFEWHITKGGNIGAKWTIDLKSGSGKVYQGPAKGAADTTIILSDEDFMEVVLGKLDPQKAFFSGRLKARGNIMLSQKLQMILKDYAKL

[25] = biological target: Tubulin beta-4B chain (Homo sapiens) (UniProt P68371)
[26] = biological target: Cell division cycle 7-related protein kinase (Homo sapiens) (UniProt O00311)
[27] = biological target: Carnitine O-palmitoyltransferase 1, liver isoform (Homo sapiens) (UniProt P50416)
[28] = biological target: Large ribosomal subunit protein uL29 (Homo sapiens) (UniProt P42766)
[29] = biological target: Syndecan-1 (Homo sapiens) (UniProt P18827)
[30] = biological target: Ubiquitin carboxyl-terminal hydrolase 5 (Homo sapiens) (UniProt P45974)
[31] = biological target: Coatomer subunit beta (Homo sapiens) (UniProt P53618)
[32] = biological target: Serine/threonine-protein kinase ICK (Homo sapiens) (UniProt Q9UPZ9)
[33] = biological target: Serine/threonine-protein phosphatase 2A 65 kDa regulatory subunit A alpha isoform (Homo sapiens) (UniProt P30153)
[34] = biological target: Arginine--tRNA ligase, cytoplasmic (Homo sapiens) (UniProt P54136)
Midasin (Homo sapiens) = Midasin (Homo sapiens) (UniProt Q9NU22)
[35] = biological target: Rho-associated protein kinase 2 (Homo sapiens) (UniProt O75116)
[36] = biological target: Phosphatidylinositol 4-kinase alpha (Homo sapiens) (UniProt P42356)
Chain of Phosphatidylinositol 4-kinase alpha (Homo sapiens) (P42356 whole entry, looked up): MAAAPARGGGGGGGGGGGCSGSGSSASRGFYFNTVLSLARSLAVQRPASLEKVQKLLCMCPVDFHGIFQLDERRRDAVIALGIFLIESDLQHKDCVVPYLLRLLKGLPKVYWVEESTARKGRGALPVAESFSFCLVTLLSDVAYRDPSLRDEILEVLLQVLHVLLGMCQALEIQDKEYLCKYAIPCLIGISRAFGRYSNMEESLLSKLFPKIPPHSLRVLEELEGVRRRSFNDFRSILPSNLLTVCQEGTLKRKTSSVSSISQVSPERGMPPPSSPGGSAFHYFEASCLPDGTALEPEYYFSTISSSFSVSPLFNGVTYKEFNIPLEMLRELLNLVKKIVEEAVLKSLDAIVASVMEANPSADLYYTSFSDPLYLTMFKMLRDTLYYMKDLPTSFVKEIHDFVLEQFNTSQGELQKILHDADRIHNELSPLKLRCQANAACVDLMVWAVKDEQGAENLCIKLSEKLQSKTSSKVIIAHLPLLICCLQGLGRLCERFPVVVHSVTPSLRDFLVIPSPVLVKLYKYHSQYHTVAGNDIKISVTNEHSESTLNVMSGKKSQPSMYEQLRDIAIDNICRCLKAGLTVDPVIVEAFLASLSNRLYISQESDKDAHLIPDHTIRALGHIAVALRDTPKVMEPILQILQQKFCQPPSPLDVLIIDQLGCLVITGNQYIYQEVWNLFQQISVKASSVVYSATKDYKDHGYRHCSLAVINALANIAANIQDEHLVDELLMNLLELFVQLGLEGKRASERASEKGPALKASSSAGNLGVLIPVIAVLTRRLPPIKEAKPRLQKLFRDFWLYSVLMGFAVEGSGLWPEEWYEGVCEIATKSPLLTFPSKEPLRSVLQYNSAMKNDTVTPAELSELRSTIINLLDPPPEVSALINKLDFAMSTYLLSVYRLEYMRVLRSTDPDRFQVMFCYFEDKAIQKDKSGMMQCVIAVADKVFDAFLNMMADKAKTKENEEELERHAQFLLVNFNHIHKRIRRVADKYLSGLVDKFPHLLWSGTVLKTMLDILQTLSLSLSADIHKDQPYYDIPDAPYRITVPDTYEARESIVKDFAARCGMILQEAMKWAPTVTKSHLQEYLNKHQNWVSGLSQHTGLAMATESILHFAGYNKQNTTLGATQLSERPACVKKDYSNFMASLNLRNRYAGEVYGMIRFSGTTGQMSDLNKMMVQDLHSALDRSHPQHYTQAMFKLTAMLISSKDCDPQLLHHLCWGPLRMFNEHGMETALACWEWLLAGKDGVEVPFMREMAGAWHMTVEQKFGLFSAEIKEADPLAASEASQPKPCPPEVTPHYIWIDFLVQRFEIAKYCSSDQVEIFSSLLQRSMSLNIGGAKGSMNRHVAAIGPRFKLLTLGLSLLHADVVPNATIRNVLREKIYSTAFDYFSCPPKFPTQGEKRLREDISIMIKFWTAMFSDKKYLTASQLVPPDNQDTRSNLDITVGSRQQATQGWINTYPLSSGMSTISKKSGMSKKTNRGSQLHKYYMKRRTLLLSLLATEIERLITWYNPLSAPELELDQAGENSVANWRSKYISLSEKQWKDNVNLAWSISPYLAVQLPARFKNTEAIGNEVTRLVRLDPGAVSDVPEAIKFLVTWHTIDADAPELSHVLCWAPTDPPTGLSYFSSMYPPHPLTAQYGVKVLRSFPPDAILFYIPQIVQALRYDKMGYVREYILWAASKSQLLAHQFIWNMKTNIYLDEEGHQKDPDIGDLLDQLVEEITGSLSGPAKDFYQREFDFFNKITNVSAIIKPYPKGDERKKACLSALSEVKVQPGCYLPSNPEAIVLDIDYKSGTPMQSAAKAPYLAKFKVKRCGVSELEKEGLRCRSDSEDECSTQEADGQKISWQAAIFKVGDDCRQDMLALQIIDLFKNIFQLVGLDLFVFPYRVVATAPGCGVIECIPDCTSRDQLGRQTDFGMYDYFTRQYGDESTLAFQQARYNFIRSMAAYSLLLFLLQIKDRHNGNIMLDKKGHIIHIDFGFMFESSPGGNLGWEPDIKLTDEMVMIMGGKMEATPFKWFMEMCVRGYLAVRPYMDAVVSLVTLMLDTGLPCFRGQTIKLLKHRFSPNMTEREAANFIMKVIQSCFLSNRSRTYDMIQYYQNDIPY

[37] = biological target: Glycogen synthase kinase-3 alpha (Homo sapiens) (UniProt P49840)
Anamorsin (Homo sapiens) = Anamorsin (Homo sapiens) (UniProt Q6FI81)
Chain of Anamorsin (Homo sapiens) (Q6FI81 whole entry): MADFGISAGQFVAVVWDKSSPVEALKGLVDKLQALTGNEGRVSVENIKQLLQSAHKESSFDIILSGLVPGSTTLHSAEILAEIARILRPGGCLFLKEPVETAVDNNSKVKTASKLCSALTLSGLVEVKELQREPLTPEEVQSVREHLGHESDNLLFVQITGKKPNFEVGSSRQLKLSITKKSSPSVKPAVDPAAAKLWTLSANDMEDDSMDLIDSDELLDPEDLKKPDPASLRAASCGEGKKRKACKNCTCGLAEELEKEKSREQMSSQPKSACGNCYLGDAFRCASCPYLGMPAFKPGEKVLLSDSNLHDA

[38] = biological target: Receptor-interacting serine/threonine-protein kinase 3 (Homo sapiens) (UniProt Q9Y572)
[39] = biological target: ATP-dependent RNA helicase DHX15 (Homo sapiens) (UniProt O43143)
[40] = biological target: ATP synthase F(0) complex subunit g, mitochondrial (Homo sapiens) (UniProt O75964)
Chain of ATP synthase F(0) complex subunit g, mitochondrial (Homo sapiens) (O75964 whole entry, one chain of several): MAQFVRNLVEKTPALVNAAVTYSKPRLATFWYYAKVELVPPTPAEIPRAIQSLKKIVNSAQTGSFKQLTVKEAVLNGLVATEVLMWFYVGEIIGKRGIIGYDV

[41] = biological target: Exportin-7 (Homo sapiens) (UniProt Q9UIA9)
[42] = biological target: General transcription and DNA repair factor IIH helicase subunit XPD (Homo sapiens) (UniProt P18074)
[43] = biological target: ATP-dependent RNA helicase DDX24 (Homo sapiens) (UniProt Q9GZR7)
[44] = biological target: Bifunctional phosphoribosylaminoimidazole carboxylase/phosphoribosylaminoimidazole succinocarboxamide synthetase (Homo sapiens) (UniProt P22234)
Chain of Bifunctional phosphoribosylaminoimidazole carboxylase/phosphoribosylaminoimidazole succinocarboxamide synthetase (Homo sapiens) (P22234 whole entry): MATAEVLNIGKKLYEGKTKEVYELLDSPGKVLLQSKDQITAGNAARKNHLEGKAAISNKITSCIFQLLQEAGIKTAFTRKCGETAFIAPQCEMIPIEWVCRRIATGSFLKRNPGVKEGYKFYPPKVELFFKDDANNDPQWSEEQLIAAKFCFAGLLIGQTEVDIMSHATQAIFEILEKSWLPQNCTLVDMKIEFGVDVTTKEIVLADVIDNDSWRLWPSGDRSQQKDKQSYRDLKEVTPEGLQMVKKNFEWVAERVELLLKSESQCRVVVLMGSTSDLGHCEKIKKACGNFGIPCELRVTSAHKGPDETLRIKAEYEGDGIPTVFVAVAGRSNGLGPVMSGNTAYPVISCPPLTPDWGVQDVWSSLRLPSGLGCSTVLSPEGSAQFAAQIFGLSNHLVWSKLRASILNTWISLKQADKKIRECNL
Also: assay method not described here.

Cc1ccc(C(=O)Nc2cccc(C(F)(F)F)c2)cc1Nc1nc(-c2cccnc2)nc2c1cnn2C
ED50 [1]: 1.15 µM
ED50 [2]: 20.2 µM
ED50 [3]: 2.18 µM
ED50 [4]: 10.4 µM
ED50 [5]: 4.04 µM
ED50 [6]: 67.2 µM
ED50 [7]: 0.0257 µM
ED50 [8]: 10.5 µM
ED50 [9]: 0.00509 µM
ED50 [10]: 0.655 µM
ED50 [11]: 5.79 µM
ED50 [12]: 0.55 µM
ED50 [13]: 7.11 µM
ED50 [14]: 4.51 µM
ED50 [15]: 3.6 µM
ED50 [16]: 69.7 µM
ED50 [17]: 0.0563 µM
ED50 [18]: 2.92 µM
ED50 [19]: 0.0863 µM
ED50 [20]: 1.06 µM
ED50 [21]: 5.15 µM
ED50 [22]: 21.6 µM
ED50 [23]: 1.13 µM
ED50 [24]: 1.36 µM
ED50 [25]: 2.68 µM
ED50 [26]: 0.00127 µM
ED50 [27]: 0.0014 µM
ED50 [28]: 64.9 µM
ED50 [29]: 1.77 µM
ED50 [30]: 130 µM
ED50 [31]: 0.813 µM
ED50 [32]: 0.0433 µM
ED50 [33]: 2 µM
ED50 [34]: 0.886 µM
ED50 (Midasin (Homo sapiens)): 55500 µM
ED50 [35]: 0.0201 µM
ED50 [36]: 18.6 µM
ED50 [37]: 0.00363 µM
ED50 (Anamorsin (Homo sapiens)): 0.0673 µM
ED50 [38]: 2.75 µM
ED50 [39]: 0.372 µM
ED50 [40]: 2.64 µM
ED50 [41]: 0.0517 µM
ED50 [42]: 0.199 µM
ED50 [43]: 2.99 µM
ED50 [44]: 0.0205 µM

Cc1ccc(C(=O)Nc2cccc(C(F)(F)F)c2)cc1Nc1nc(-c2cccnc2)nc2nn(C)cc12
ED50 [1]: 0.126 µM
ED50 [2]: 11.4 µM
ED50 [3]: 0.0205 µM
ED50 [4]: 9.78 µM
ED50 [5]: 22.5 µM
ED50 [6]: 0.0395 µM
ED50 [7]: 1.58 µM
ED50 [8]: 0.0476 µM
ED50 [9]: 1.19 µM
ED50 [10]: 0.00935 µM
ED50 [11]: 0.32 µM
ED50 [12]: 0.0659 µM
ED50 [13]: 0.083 µM
ED50 [14]: 6.82 µM
ED50 [15]: 0.0409 µM
ED50 [16]: 1.13 µM
ED50 [17]: 0.877 µM
ED50 [18]: 8.18 µM
ED50 [19]: 0.0907 µM
ED50 [20]: 9.77 µM
ED50 [21]: 10.1 µM
ED50 [22]: 0.169 µM
ED50 [23]: 1.29 µM
ED50 [24]: 0.85 µM
ED50 [25]: 0.0012 µM
ED50 [26]: 0.869 µM
ED50 [27]: 0.0676 µM
ED50 [28]: 0.00771 µM
ED50 [29]: 1.07 µM
ED50 [30]: 0.00988 µM
ED50 [31]: 0.928 µM
ED50 [32]: 0.0292 µM
ED50 [33]: 203 µM
ED50 [34]: 0.443 µM
ED50 (Midasin (Homo sapiens)): 0.048 µM
ED50 [35]: 0.432 µM
ED50 [36]: 50.1 µM
ED50 [37]: 0.0885 µM
ED50 (Anamorsin (Homo sapiens)): 78.8 µM
ED50 [38]: 6.31 µM
ED50 [39]: 23 µM
ED50 [40]: 0.214 µM
ED50 [41]: 0.0173 µM
ED50 [42]: 21.8 µM
ED50 [43]: 0.1 µM
ED50 [44]: 0.0548 µM
